This is an account of results in patent US20100323990A1, “SHIP 1 MODULATOR PRODRUGS” (THE UNIVERSITY OF BRITISH COLUMBIA, priority 2006, published 2010).

For this assay, the system named is SHIP+/+ bone marrow derived macrophages. Kind of assay: LPS-stimulated TNFα production in SHIP+/+ bone marrow derived macrophages. It counts as cell-based, mice. The settings on record: for suppression of TNFα production: SHIP+/+ cells, 10 ng/mL LPS 2 h. The procedure:
Bone marrow cells were aspirated from 4 to 8 week old C57B16×129Sv mixed background mice and SHIP^+/+ and SHIP^−/− mast cells prepared as described previously. Bone marrow derived macrophages from SHIP^+/+ and SHIP^−/− mice were obtained and maintained in IMDM supplemented with 10% FCS, 150 μM MTG, 2% C127 cell conditioned medium as a source of macrophage colony stimulating factor (M-CSF) (macrophage medium)
LPS stimulation of macrophages. For the analysis of LPS-stimulated TNFα production, 2×10^5 cells were plated the night before in 24 well plates in macrophage medium. The next day, the medium was changed and AQX-016A or carrier was added to cells at the indicated concentrations for 30 min prior to the addition of 10 ng/mL LPS. Supernatants were collected for TNFα determination by ELISA (BD Biosciences, Mississauga, ON, Canada). For analysis of intracellular signaling, 2×10^6 cells were plated the night before in 6 cm tissue culture plates. The next day, the cells were cultured in macrophage medium without M-CSF for 1 hr at 37° C. and then pretreated with AQX-016A or carrier for 30 min prior to the addition of 10 ng/mL LPS for 15 min. Cells were washed with 4° C. PBS and resuspended in lysis buffer (50 mM Hepes, 2 mM EDTA, 1 mM NaVO4, 100 mM NaF, 50 mM NaPPi and 1% NP40) supplemented with Complete Protease Inhibitor Cocktail (Roche, Montreal, Canada). Lysates were rocked at 4° C. for 30 min and clarified by centrifuging 20 min at 12000×g. Lysates were then made 1× in Laemmli's buffer, boiled 2 min and loaded onto 7.5% SDS polyacrylamide […]. Immunoblot analysis for phospho PKB (Cell Signalling, Mississauga, Ont), SHIP and actin (Santa Cruz, Santa Cruz, Calif.) were carried out as described previously. Stimulation of mast cells by FcεRI crosslinking. Mast cells were pre-loaded overnight in BMMC medium lacking IL-3 with 0.1 μg/ml anti-DNP IgE (SPE-7, Sigma, Oakville, Ont). For calcium flux measurements, cells were incubated with 2 μM fura 2-acetoxymethyl ester (Molecular Probes, Eugene, Oreg.) in Tyrode's buffer at 23° C. for 45 min. Cells were then washed and incubated in the presence of vehicle control, LY294002 or AQX-016A 30 min prior to stimulation with the indicated concentration of DNP-human serum albumin (DNP-HSA). Calcium influx was monitored by spectrofluorometry. For analysis of intracellular signaling, cells were pre-loaded with anti-DNP IgE as above, pre-treated with AQX-016A or buffer control for 30 min at 37° C. and stimulated with 20 ng/ml DNP-HSA for 5 min. Total cell lysates were then prepared and analyzed for phospho-PKB, phospho-p38^MAPK, phospho-MAPK, Grb-2 (Cell Signalling, Mississauga, Ont) and SHIP^6 by immunoblot analysis.
The target specificity and biological efficacy of AQX-016A were assessed by comparing AQX-016A's effects on PI3K-regulated processes in primary SHIP^+/+ vs SHIP^−/− macrophages and mast cells. […] LPS stimulation of macrophages is associated with a PIP3-dependent release of pro-inflammatory mediators such as TNFα. The action of AQX-016A on SHIP^+/+ vs SHIP^−/− bone marrow derived macrophages was examined. Cells were pretreated for 30 min with AQX-016A prior to stimulation with 10 ng/mL of LPS for 2 h. AQX-016A was able to suppress TNFα production in SHIP^+/+ cells by 30% at 3 μM and 50% at 15 μM (FIG. 8A). […] Activation of mast cells via IgE+ antigen crosslinking of their IgE receptors results in elevation of intracellular calcium levels.

With `Cc1cc(O)c(O)c2c1[C@]1(C)CCC3C(C)(C)CCC[C@]3(C)[C@H]1C2` (stereo partly shown) [AQX-016A], the “suppression of TNFα production” value turned out to be 30% (3 μM) and 50% (15 μM).

Regarding `Cc1cc(O)cc2c1[C@]1(C)CCC3C(C)(C)CCC[C@]3(C)[C@H]1C2` (stereo partly shown) [Compound 100], the “TNFα production, SHIP+/+ vs SHIP−/− macrophages” value (LPS stimulated) is reported as “selectively inhibited”. In addition, for the setting “Mus musculus, Macrophage, SHIP+/+ macrophages, LPS stimulated, read-out: EC50 for inhibition of TNFα production”, the EC50 lay within 300 to 600 nM.
